Data taken from the NIST ThermoML archive (doi:10.1016/j.jct.2013.11.027).
Values joined by “and” are separate entries in the source; they are usually repeats but may differ in a detail not shown here. Equal values may be shown once.

Columns and labels:
[1] = 101.33 kPa, Liquid; for speed of sound: Sing-around technique in a fixed-path interferometer; for mass density: Vibrating tube method
[2] = refractive index (Na D-line) (dimensionless); settings: 101.33 kPa, Liquid, Standard Abbe refractometry
[3] = xn = mol fraction of the nth substance listed; settings: 101 kPa, Liquid, x2 = 0; for speed of sound: Sing-around technique in a fixed-path interferometer; for mass density: Vibrating tube method
[4] = refractive index (Na D-line) (dimensionless); xn = mol fraction of the nth substance listed; settings: 101 kPa, Liquid, Standard Abbe refractometry, x2 = 0

CCCCCCCC[n+]1ccn(C)c1.F[B-](F)(F)F [1-methyl-3-octylimidazolium tetrafluoroborate]
Settings	mass density, [1] [kg/m3]	refractive index, [2]	speed of sound, [1] [m/s]
293.15 K	1100.59	1.43389	1495.5
298.15 K	1097.61	1.43296	1481.1
303.15 K	1094.07	1.43192	1467.3
308.15 K	1090.9	1.42939	1453.9
313.15 K	1087.41	1.42772	1440.9
318.15 K	1084.17	1.42684	1428.2
323.15 K	1080.75	1.42696	1414.7

C1CCOC1 [tetrahydrofuran]
Settings	mass density, [1]	refractive index, [2]	speed of sound, [1] [m/s]
293.15 K	888.69 kg/m3	1.40696	1304.6
298.15 K	882.21 kg/m3 and 882.209 kg/m3	1.4042	1280.5
303.15 K	877.7 kg/m3	1.40157	1256.4
308.15 K	872.16 kg/m3 and 871.159 kg/m3	1.39885	1232.5
313.15 K	866.58 kg/m3	1.39623	1208.8
318.15 K	860.96 kg/m3 and 859.955 kg/m3	1.39349	1185.2
323.15 K	855.29 kg/m3	1.39083	1161.7

C1CCOC1 [tetrahydrofuran] + CCCCCCCC[n+]1ccn(C)c1.F[B-](F)(F)F
Settings	mass density, 298.15 K [kg/m3]	mass density, 308.15 K [kg/m3]	mass density, 318.15 K [kg/m3]	refractive index, 298.15 K	refractive index, 308.15 K	refractive index, 318.15 K	speed of sound, 298.15 K [m/s]	speed of sound, 308.15 K [m/s]	speed of sound, 318.15 K [m/s]
[3]	882.209	871.159	859.955	–	–	–	1280.5	1232.5	1185.2
[4]	–	–	–	1.4042	1.39885	1.39349	–	–	–

C1CCOC1 [tetrahydrofuran] + CCCCCCn1cc[n+](C)c1.F[B-](F)(F)F
Settings	mass density, 298.15 K [kg/m3]	mass density, 308.15 K [kg/m3]	mass density, 318.15 K [kg/m3]	refractive index, 298.15 K	refractive index, 308.15 K	refractive index, 318.15 K	speed of sound, 298.15 K [m/s]	speed of sound, 308.15 K [m/s]	speed of sound, 318.15 K [m/s]
[3]	882.209	871.159	859.955	–	–	–	1280.5	1232.5	1185.2
[4]	–	–	–	1.4042	1.39885	1.39349	–	–	–
